Results published in article PMC8751734 (Cell Chemical Biology, 2022).

What was measured:
[1] = tested on: PL^pro; conditions: ref Shin et al., 2020 (GRL-0617); Klemm et al., 2020 (rac5c); cited from earlier work
[2] = Pharmacokinetics study of ACF in CD-1 mice; type: in vivo
[3] = tested on: SARS-CoV-2; assay: Activity of ACF components against SARS-CoV-2 in vitro; type: cell-based
[4] = tested on: SARS-CoV-2; type: cell-based
[5] = tested on: SARS-CoV-2; type: cell-based; remark: listed apart in the source
[6] = tested on: SARS-CoV-2; type: cell-based; remark: listed apart in the source
[7] = tested on: SARS-CoV-2; conditions: mouse, in vivo

COc1cc(CNC(=O)C2CCN(C(C)c3cccc4ccccc34)CC2)ccn1 (racemic) [rac5c]
reported activity [1]: active at the micromolar range

Cc1ccc(N)cc1C(=O)N[C@H](C)c1cccc2ccccc12 [GRL-0617]
reported activity [1]: active at the micromolar range

Nc1ccc2cc3ccc(N)cc3nc2c1 [PF, 3,6-diaminoacridine]
levels / exposure in lungs ([2]; IV 15 mg/kg and PO 100 mg/kg of commercial ACF): very high | oral bioavailability ([2]; components of commercial ACF): much higher bioavailability | activity against SARS-CoV-2 in vitro [3]: active

CCC(CC)COC(=O)[C@H](C)N[P@](=O)(OC[C@H]1O[C@@](C#N)(c2ccc3c(N)ncnn23)[C@H](O)[C@@H]1O)Oc1ccccc1 [remdesivir]
inhibition of SARS-CoV-2 replication (confocal microscopy) [4]: inferior compared with 500 nM ACF | virus yields in HAE cultures compared with PBS/untreated control [5]: significantly inhibited virus yields | elimination of SARS-CoV-2 (confocal microscopy) [6]: nearly complete elimination | adverse effects in mice [7]: No adverse effects were observed | decrease of viral loads in the brain [7]: 2–3 orders of magnitude
